Assay results reported in PubChem BioAssay (NCI).
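Method: 48-hour compound exposure of cells in 96-well plates, five concentrations, linear interpolation of endpoints. TGI denotes the concentration required for complete inhibition of growth.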

Legend:
Assay in all cases: NCI-60 cell line screen, 48 h
786-0 renal = test system: 786-0 renal
A498 renal = test system: A498 renal
ACHN renal = test system: ACHN renal
CAKI-1 renal = test system: CAKI-1 renal
COLO 205 colon = test system: COLO 205 colon
DMS 114 small cell lung = test system: DMS 114 small cell lung
DMS 273 small cell lung = test system: DMS 273 small cell lung
EKVX NSCLC = test system: EKVX NSCLC
HCC-2998 colon = test system: HCC-2998 colon
HCT-116 colon = test system: HCT-116 colon
HCT-15 colon = test system: HCT-15 colon
HOP-18 NSCLC = test system: HOP-18 NSCLC
HOP-62 NSCLC = test system: HOP-62 NSCLC
HOP-92 NSCLC = test system: HOP-92 NSCLC
HT29 colon = test system: HT29 colon
IGROV1 ovarian = test system: IGROV1 ovarian
K-562 leukemia = test system: K-562 leukemia
KM12 colon = test system: KM12 colon
KM20L2 colon = test system: KM20L2 colon
LOX IMVI melanoma = test system: LOX IMVI melanoma
LXFL 529 NSCLC = test system: LXFL 529 NSCLC
M14 melanoma = test system: M14 melanoma
M19-MEL melanoma = test system: M19-MEL melanoma
MALME-3M melanoma = test system: MALME-3M melanoma
MOLT-4 leukemia = test system: MOLT-4 leukemia
NCI-H226 lung = test system: NCI-H226 lung
NCI-H23 lung = test system: NCI-H23 lung
NCI-H460 lung = test system: NCI-H460 lung
NCI-H522 lung = test system: NCI-H522 lung
OVCAR-3 ovarian = test system: OVCAR-3 ovarian
OVCAR-4 ovarian = test system: OVCAR-4 ovarian
OVCAR-5 ovarian = test system: OVCAR-5 ovarian
OVCAR-8 ovarian = test system: OVCAR-8 ovarian
RPMI-8226 leukemia = test system: RPMI-8226 leukemia
RXF 393 renal = test system: RXF 393 renal
RXF-631 renal = test system: RXF-631 renal
SF-268 CNS = test system: SF-268 CNS
SF-295 CNS = test system: SF-295 CNS
SF-539 CNS = test system: SF-539 CNS
SK-MEL-2 melanoma = test system: SK-MEL-2 melanoma
SK-MEL-28 melanoma = test system: SK-MEL-28 melanoma
SK-MEL-5 melanoma = test system: SK-MEL-5 melanoma
SK-OV-3 ovarian = test system: SK-OV-3 ovarian
SN12C renal = test system: SN12C renal
SNB-19 CNS = test system: SNB-19 CNS
SNB-75 CNS = test system: SNB-75 CNS
SNB-78 CNS = test system: SNB-78 CNS
SW-620 colon = test system: SW-620 colon
TK-10 renal = test system: TK-10 renal
U251 CNS = test system: U251 CNS
UACC-257 melanoma = test system: UACC-257 melanoma
UACC-62 melanoma = test system: UACC-62 melanoma
UO-31 renal = test system: UO-31 renal
A549 NSCLC = test system: A549 NSCLC
BT-549 breast = test system: BT-549 breast
CCRF-CEM leukemia = test system: CCRF-CEM leukemia
DLD-1 colon = test system: DLD-1 colon
DU-145 prostate = test system: DU-145 prostate
HL-60(TB) leukemia = test system: HL-60(TB) leukemia
MCF7 breast = test system: MCF7 breast
MDA-MB-231 breast = test system: MDA-MB-231 breast
MDA-MB-435 = test system: MDA-MB-435
MDA-N = test system: MDA-N
PC-3 prostate = test system: PC-3 prostate
T-47D breast = test system: T-47D breast

N#CCc1nc2c(s1)C(=O)c1ccccc1C2=O
TGI (786-0 renal): 30.1 µM | TGI (A498 renal): 59.1 µM | TGI (ACHN renal): 27.4 µM | TGI (CAKI-1 renal): 38.6 µM | TGI (COLO 205 colon): 33.4 µM | TGI (DMS 114 small cell lung): 20.1 µM | TGI (DMS 273 small cell lung): 29.9 µM | TGI (EKVX NSCLC): 49.1 µM | TGI (HCC-2998 colon): 38 µM | TGI (HCT-116 colon): 27.6 µM | TGI (HCT-15 colon): 29.9 µM | TGI (HOP-18 NSCLC): 28.3 µM | TGI (HOP-62 NSCLC): 28.3 µM | TGI (HOP-92 NSCLC): 34.4 µM | TGI (HT29 colon): 46.5 µM | TGI (IGROV1 ovarian): 17.3 µM | TGI (K-562 leukemia): 39.6 µM | TGI (KM12 colon): 36 µM | TGI (KM20L2 colon): > 100 µM | TGI (LOX IMVI melanoma): 28.1 µM | TGI (LXFL 529 NSCLC): 28.2 µM | TGI (M14 melanoma): 28.5 µM | TGI (M19-MEL melanoma): 11.4 µM | TGI (MALME-3M melanoma): 34.3 µM | TGI (MOLT-4 leukemia): 3.48 µM | TGI (NCI-H226 lung): 37.8 µM | TGI (NCI-H23 lung): 36.4 µM | TGI (NCI-H460 lung): 47.6 µM | TGI (NCI-H522 lung): 29.9 µM | TGI (OVCAR-3 ovarian): 29.3 µM | TGI (OVCAR-4 ovarian): 31.1 µM | TGI (OVCAR-5 ovarian): 37.2 µM | TGI (OVCAR-8 ovarian): 22.6 µM | TGI (RPMI-8226 leukemia): 46.6 µM | TGI (RXF 393 renal): 49.4 µM | TGI (RXF-631 renal): 42.7 µM | TGI (SF-268 CNS): 32.2 µM | TGI (SF-295 CNS): 34.5 µM | TGI (SF-539 CNS): 28 µM | TGI (SK-MEL-2 melanoma): 35.6 µM | TGI (SK-MEL-28 melanoma): 32.8 µM | TGI (SK-MEL-5 melanoma): 23.7 µM | TGI (SK-OV-3 ovarian): > 100 µM | TGI (SN12C renal): 33.5 µM | TGI (SNB-19 CNS): 40.7 µM | TGI (SNB-75 CNS): 49.3 µM | TGI (SNB-78 CNS): 47.7 µM | TGI (SW-620 colon): 34.8 µM | TGI (TK-10 renal): 36.5 µM | TGI (U251 CNS): 31.1 µM | TGI (UACC-257 melanoma): 28.5 µM | TGI (UACC-62 melanoma): 26.5 µM | TGI (UO-31 renal): 29.3 µM

O=c1c2cc(Cl)ccc2n2nnc3ccc(NCCNCCO)c1c32
TGI (786-0 renal): 2.02 µM | TGI (A498 renal): 2.86 µM | TGI (A549 NSCLC): 2.58 µM | TGI (ACHN renal): 2.43 µM | TGI (BT-549 breast): 5.22 µM | TGI (CAKI-1 renal): 4.97 µM | TGI (CCRF-CEM leukemia): 4.44 µM | TGI (COLO 205 colon): 2.68 µM | TGI (DLD-1 colon): 5.76 µM | TGI (DMS 114 small cell lung): 3.59 µM | TGI (DMS 273 small cell lung): 2.45 µM | TGI (DU-145 prostate): 8.91 µM | TGI (EKVX NSCLC): 4.44 µM | TGI (HCC-2998 colon): 2.7 µM | TGI (HCT-116 colon): 2.33 µM | TGI (HCT-15 colon): 2.59 µM | TGI (HL-60(TB) leukemia): 9.77 µM | TGI (HOP-62 NSCLC): 3.03 µM | TGI (HOP-92 NSCLC): 6.1 µM | TGI (HT29 colon): 2.74 µM | TGI (IGROV1 ovarian): 6.26 µM | TGI (K-562 leukemia): 10.9 µM | TGI (KM12 colon): 3.48 µM | TGI (KM20L2 colon): 2.72 µM | TGI (LOX IMVI melanoma): 1.96 µM | TGI (LXFL 529 NSCLC): 3.51 µM | TGI (M14 melanoma): 2.88 µM | TGI (M19-MEL melanoma): 3.28 µM | TGI (MALME-3M melanoma): 5.67 µM | TGI (MCF7 breast): 9.46 µM | TGI (MDA-MB-231 breast): 2.81 µM | TGI (MDA-MB-435): 2.36 µM | TGI (MDA-N): 2.32 µM | TGI (MOLT-4 leukemia): 6.59 µM | TGI (NCI-H226 lung): 4.13 µM | TGI (NCI-H23 lung): 2.86 µM | TGI (NCI-H460 lung): 1.58 µM | TGI (NCI-H522 lung): 3.03 µM | TGI (OVCAR-3 ovarian): 4.16 µM | TGI (OVCAR-4 ovarian): 2.52 µM | TGI (OVCAR-5 ovarian): 3.42 µM | TGI (OVCAR-8 ovarian): 2.53 µM | TGI (PC-3 prostate): 2.75 µM | TGI (RPMI-8226 leukemia): 10.2 µM | TGI (RXF 393 renal): 3.45 µM | TGI (RXF-631 renal): 3.05 µM | TGI (SF-268 CNS): 8.86 µM | TGI (SF-295 CNS): 1.38 µM | TGI (SF-539 CNS): 3.32 µM | TGI (SK-MEL-2 melanoma): 5.01 µM | TGI (SK-MEL-28 melanoma): 3.26 µM | TGI (SK-MEL-5 melanoma): 2.86 µM | TGI (SK-OV-3 ovarian): 6.26 µM | TGI (SN12C renal): 2.88 µM | TGI (SNB-19 CNS): 5.07 µM | TGI (SNB-75 CNS): 0.286 µM | TGI (SNB-78 CNS): 9.39 µM | TGI (SW-620 colon): 2.51 µM | TGI (T-47D breast): 7.52 µM | TGI (TK-10 renal): 6.24 µM | TGI (U251 CNS): 1.94 µM | TGI (UACC-257 melanoma): 3.6 µM | TGI (UACC-62 melanoma): 5.41 µM | TGI (UO-31 renal): 3.49 µM
